Source: ChEMBL document CHEMBL1126847, “Deoxygenated inositol 1,4,5-trisphosphate analogues and their interaction with metabolic enzymes. (1R,2R,4R)-cyclohexane-1,2,4-tris(methylenesulfonate): a potent selective 5-phosphatase inhibitor” (J Med Chem, 1993)

Tests used:
[1] = molecular target: T1, Inositol polyphosphate-5-phosphatase A (Homo sapiens, UniProt Q14642); assay: Tested for inhibition of 5-phosphatase isolated from human erythrocyte membrane (S substrate)
T1 sequence (Q14642 whole entry): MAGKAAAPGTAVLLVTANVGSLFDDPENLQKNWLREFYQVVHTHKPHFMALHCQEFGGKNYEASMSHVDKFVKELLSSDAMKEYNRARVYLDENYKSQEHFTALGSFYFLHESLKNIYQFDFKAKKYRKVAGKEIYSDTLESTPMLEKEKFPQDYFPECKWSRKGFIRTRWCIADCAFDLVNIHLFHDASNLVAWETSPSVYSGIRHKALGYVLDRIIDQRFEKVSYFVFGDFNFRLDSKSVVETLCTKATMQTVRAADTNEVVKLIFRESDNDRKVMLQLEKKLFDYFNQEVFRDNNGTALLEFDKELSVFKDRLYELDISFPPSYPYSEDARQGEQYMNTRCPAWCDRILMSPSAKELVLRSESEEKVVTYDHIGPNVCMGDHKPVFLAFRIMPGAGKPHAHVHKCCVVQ

[2] = Inhibition of Inositol 1,4,5-trisphosphate 3-kinase from rat brain homogenate (r metabolically resistant)
[3] = Tested for the ability to displace [3H]1,4,5-IP3 from the 1,4,5-IP3 specific binding site of membranes from the bovine adrenal cortices
[4] = Tested for [Ca2+] release in 45 [Ca2+] -preloaded SH-SY5Y cells using saponin; assay type: functional, cell-based; settings: Homo sapiens
[5] = molecular target: T1, Inositol polyphosphate-5-phosphatase A; assay: Tested for inhibition of 5-phosphatase isolated from human erythrocyte membrane (R metabolically resistant)
[6] = (§1) Inhibition of Inositol 1,4,5-trisphosphate 3-kinase from rat brain homogenate (R metabolically resistant); assay type: tissue-based
[7] = Inhibition of Inositol 1,4,5-trisphosphate 3-kinase from rat brain homogenate (r-metabolically resistant)
[8] = molecular target: T1, Inositol polyphosphate-5-phosphatase A; assay: Tested for inhibition of 5-phosphatase isolated from human erythrocyte membrane
[9] = as §1
[10] = Inhibition of Inositol 1,4,5-trisphosphate 3-kinase from rat brain homogenate (S substrate)

O=P(O)(O)OC1CCC(OP(=O)(O)O)[C@H](OP(=O)(O)O)[C@@H]1O (stereo partly specified)
Ki [1]: 16.5 µM
Ki [2]: 19 µM
Ki [3]: 0.0396 µM
EC50 [4]: 0.186 µM

O=P(O)(O)Cc1ccc(CP(=O)(O)O)c(CP(=O)(O)O)c1
Ki [5]: 148 µM
Ki [6]: > 200 µM
Ki [3]: > 100 µM
EC50 [4]: > 100 µM

O=P(O)(O)OC1[C@H](O)CC(OP(=O)(O)O)[C@H](OP(=O)(O)O)[C@@H]1O (stereo partly specified)
Ki [1]: 11.5 µM
Ki [2]: 25 µM
Ki [3]: 0.0234 µM
EC50 [4]: 0.156 µM

O=P(O)(O)OC1CCC(OP(=O)(O)O)[C@H](OP(=O)(O)O)C1 (stereo partly specified)
Ki [1]: 81.4 µM
Ki [7]: 36 µM
Ki [3]: 3.95 µM
EC50 [4]: > 10 µM

O=P(O)(O)OCC1CCC(COP(=O)(O)O)[C@H](COP(=O)(O)O)C1 (stereo partly specified)
Ki [5]: 144 µM
Ki [6]: > 600 µM
Ki [3]: > 100 µM
EC50 [4]: > 100 µM

O=P(O)(O)CC1CCC(CP(=O)(O)O)[C@H](CP(=O)(O)O)C1 (stereo partly specified)
Ki [5]: 535 µM
Ki [6]: > 600 µM
Ki [3]: > 100 µM
EC50 [4]: > 100 µM

O=S(=O)(O)CC1CC[C@@H](CS(=O)(=O)O)C[C@H]1CS(=O)(=O)O (stereo partly specified)
Ki [8]: 3.9 µM
Ki [6]: > 600 µM
Ki [3]: > 100 µM
EC50 [4]: > 100 µM

O=S(=O)(O)CC1CC[C@H](CS(=O)(=O)O)C[C@H]1CS(=O)(=O)O (stereo partly specified)
Ki [5]: > 1000 µM
Ki [3]: > 100 µM
EC50 [4]: > 100 µM
Ki [9]: > 600 µM

O=P(O)(O)O[C@@H]1[C@H](O)[C@H](O)[C@@H](OP(=O)(O)O)[C@H](OP(=O)(O)O)[C@H]1O [INS(1,4,5)P3]
Ki [1]: 15 µM
Ki [10]: 0.85 µM
Ki [3]: 0.0022 µM
EC50 [4]: 0.0521 µM
